In one experiment the test system is DLD-1 BRCA2 (-/-). Nature of the experiment: Combined use with combination drug, matrix study, Bliss Independence model (Cell Titer Glo, 7 days). In kind it is cell-based. As to conditions: combination with Olaparib (PARP inhibitor). The method, then: (§1) DLD-1 colorectal adenocarcinoma cells, DLD-1 BRCA2 (-/-) colorectal adenocarcinoma cells, SHP-77 human small cell lung cancer cells, NCI-H82 human small cell lung cancer cells, LNCAP prostate cancer cells, KURAMOCHI human ovarian cancer cells, A2780 human ovarian cancer cells, and NCI-H23 non-small cell lung cancer cells were cultured in a 1640 medium containing 10% fetal bovine serum. SKOV3 human ovarian cancer cells were cultured in a McCoy's 5A (modified) medium containing 10% fetal bovine serum. OVCAR3 ovarian cancer cells were cultured in a 1640 medium containing 20% fetal bovine serum and 10 µg/mL bovine insulin. MDA-MB-436 breast cancer cells (natural BRCA1 mutation) and A549 non-small cell lung cancer cells were cultured in a DMEM medium containing 10% fetal bovine serum. Capan-1 human pancreatic cancer cells (natural BRCA2 mutation) were cultured in an IMDM medium containing 20% fetal bovine serum. The cells were all cultured at 37 °C with 5% CO2. Cells at the logarithmic growth phase were available for the experiment.
(§2) 100 µL of the cell medium was added to rows A and H and columns 1 and 12 of a 96-well cell culture plate. Cultured cells were resuspended (adherent cells were digested with trypsin) and counted to give information on cell density and viability. The dilution ratio of the resuspended cells required for inoculating a fixed number of cells into 80 µL of the medium in each culture well was calculated based on the cell density information. After the resuspended cells were diluted with the corresponding medium, 80 µL of the diluted cells were transferred to columns 2-11 of rows B-G of a 96-well cell culture plate using an Eppendorf multi-channel pipette (60 wells in total for each plate). The cell culture plate was incubated overnight in an incubator at 37 °C with 5% CO2.
(§3) The test compound and the combination compound were dissolved in DMSO to give a 10 mM solution for later use. In the experiment, the compound was further diluted to the corresponding concentration according to the concentration designed in the experiment, and based on this concentration, serial gradient dilution was performed. Matrix study was performed at 8 or 7 dose concentrations of the test compound (the lowest dose concentration was 0, and other specific concentration values were shown in FIG. 1) and 7 or 8 dose concentrations of the combination compound (the lowest dose concentration was 0, and other specific concentration values were shown in FIG. 1). 10 µL of each of the diluted combination compound and test compound was added to the corresponding cell plate well, such that the final concentration of DMSO was 0.25%. The test compound and the cells were incubated in an incubator at 37 °C with 5% CO2 for another 7 days, Cell Titer Glo was added at 50 µL/well, and the luminescence value of each well was read using an Envision microplate reader.
(§4) The luminescence value of the well containing only the cell medium was taken as the background (RLUbackground, corresponding cell survival rate to be 0%), the cell well containing only 0.25% DMSO without the compound was taken as the maximum signal (RLUDMSO, corresponding cell survival rate to be 100%), and the luminescence values of the remaining wells containing cells and compounds at different concentrations were taken as RLUsample. The survival rate of each cell well was calculated as follows: Survival rate (%) = (RLUsample−RLUbackground)/(RLUDMSO−RLUbackground) × 100% [formula]
(§5) The interaction between drugs (synergistic, independent, or antagonistic) was statistically analyzed by the Bliss Independence model using Combenefit software (Bliss, C.I., Bacteriol. Rev., 1956, 20, 243-258). The model assumes that each drug acts independently. The theoretical expected action curve of the combination was calculated from the following equation: Bliss effect = effect A + effect B−effect A × effect B [formula] wherein effect A and effect B are the effects of drugs A and B alone at specific concentrations. […]
A general note: In ATP-based viability assays light output follows the ATP content of the culture.

In experiment [1] the target is T1, N-terminal active peptide segment of POLQ with ATPase activity (M1-N899) (Homo sapiens, UniProt O75417).
T1 construct: N-terminal active peptide segment of POLQ with ATPase activity (M1-N899)
Kind of experiment: POLQ enzyme activity inhibition experiment (ATPase, NADH oxidation-coupled, OD 340 nm). The experiment is classed as biochemical. Here is the method:
Brief introduction to experimental principle: After the N-terminal active peptide segment of POLQ with ATPase activity (M1-N899) is co-incubated with the compound, this peptide segment reacts with substrate dT50 under the action of ATP to generate ADP. The generated ADP then participates in the subsequent NADH oxidation-coupled enzymatic reaction, catalyzing the conversion of NADH to NAD^+. The reduction in the OD value of NADH at 340 nm was measured using the Envision microplate reader from Perkin Elmer to reflect enzyme activity. Experimental instruments: Labcyte Echo 650 pipetting system; Perkin Elmer Envision microplate reader; Eppendorf 5810R centrifuge; Boxun BSD-YX3400 thermostatic shaker.
Experimental methods: The POLQ enzyme was diluted to 100 nM with a reaction buffer (20 mM Tris HCl (pH 7.80), 80 mM KCl, 10 mM MgCl2, 1 mM DTT, 0.01% w/v bovine serum albumin, 0.01% v/v Tween-20, 5% v/v glycerol). The test compound was diluted to different concentrations with dimethyl sulfoxide (DMSO) using an Echo 650 pipetting system and transferred to a 384-well plate, 20 µL/well of 100 nM POLQ was added, and the mixture was incubated at room temperature for 15 min. A reaction mixture solution was prepared with the concentrations of each component in the reaction mixture solution as follows: 100 µM ATP, 300 nM dT50, 300 µM NADH, 6 mM PEP, 10 U/mL lactate dehydrogenase, and 20 U/mL pyruvate kinase. 20 µL/well of the reaction mixture solution was added to start the enzyme reaction. In the reaction system, the compound was serially diluted 3-fold from the final concentration of 10 µM, covering a concentration range from 10 µM to 0.0005 µM, and the final concentration of DMSO in the system was 0.2% v/v. After the 384-well plate was reacted at room temperature for 20 min, the OD value at 340 nm was read using an Envision microplate reader.
(§6) Inhibition rates were calculated and fitted using XLfit software to give the IC50 of the compound.
A blank group and a DMSO group were set in the experiment. […]

Experiment [2] concerns DLD-1 BRCA2 (-/-) cell line. Nature of the experiment: Inhibition of tumor cell proliferation, 7 days, CTG. In kind it is cell-based. Particulars: Homo sapiens, DLD-1, 168 h, 7 days incubation. Here is the method: (§7) Brief introduction to experimental principle: After the compound was co-incubated with tumor cells for 7 days, the ATP in viable cells was quantified using the CTG kit from Promega to reflect the effect of the compound on tumor cell proliferation.
(§8) Experimental methods: DLD-1 parent cells or DLD-1 BRCA2 (-/-) cells were diluted with an RPMI 1640 medium containing 10% FBS and then added to a 96-well plate (90 µL/well), with the number of cells being 600/well or 1200/well, respectively, and incubated overnight in an incubator at 37 °C with 5% CO2. The test compound was diluted to different concentrations with dimethyl sulfoxide (DMSO) and then added to a 96-well plate, such that, in the reaction system, the compound was serially diluted 4-fold from the final concentration of 25 µM. The concentration range of the compound was from 25 µM to 0.0004 µM, and the final concentration of DMSO was 0.25% v/v. After incubation for 7 days, 50 µL/well of CTG was added, and the mixture was incubated at room temperature for 10 min. The luminescence (Lum) signal value was read using an Envision microplate reader, and the inhibition rate and half inhibitory concentration (IC50) were calculated.
as §6
(§9) A Blank well and a DMSO well were set in the experiment. The blank well contained 100 µL of an RPMI Medium 1640 medium containing 10% FBS, and the inhibition rate of the compound on tumor cell growth was considered to be 100% under this condition. For the DMSO well, 0.25% v/v DMSO was added to the cell-containing well, and the inhibition rate of the compound on tumor cell growth was considered to be 0 under this condition. Inhibition rate = 100 × (Lummax−Lumcompound)/(Lummax−Lummin)% [formula] wherein Lummax refers to the luminescence signal value of the well containing cells and 0.25% v/v DMSO, and Lumcompound refers to the luminescence signal value of the well containing the compound and cells. Lummin refers to the luminescence signal value of the well containing the medium and 0.25% v/v DMSO.

A further experiment concerns MDA-MB-436. Kind of experiment: Combined use with combination drug, matrix study, Bliss Independence model (Cell Titer Glo, 7 days). The experiment is classed as cell-based. As to conditions: combination with Niraparib (PARP inhibitor). The method, then:
as §1, §2, §3, §4, §5

For another experiment, the system named is DLD-1 parent cells. Kind of experiment: Inhibition of tumor cell proliferation, 7 days, CTG. In kind it is cell-based. As to conditions: Homo sapiens, DLD-1, 168 h, 7 days incubation. The method, then: as §7, §8, §6, §9

Some results are limits rather than exact numbers.

T1 sequence (O75417 1-899): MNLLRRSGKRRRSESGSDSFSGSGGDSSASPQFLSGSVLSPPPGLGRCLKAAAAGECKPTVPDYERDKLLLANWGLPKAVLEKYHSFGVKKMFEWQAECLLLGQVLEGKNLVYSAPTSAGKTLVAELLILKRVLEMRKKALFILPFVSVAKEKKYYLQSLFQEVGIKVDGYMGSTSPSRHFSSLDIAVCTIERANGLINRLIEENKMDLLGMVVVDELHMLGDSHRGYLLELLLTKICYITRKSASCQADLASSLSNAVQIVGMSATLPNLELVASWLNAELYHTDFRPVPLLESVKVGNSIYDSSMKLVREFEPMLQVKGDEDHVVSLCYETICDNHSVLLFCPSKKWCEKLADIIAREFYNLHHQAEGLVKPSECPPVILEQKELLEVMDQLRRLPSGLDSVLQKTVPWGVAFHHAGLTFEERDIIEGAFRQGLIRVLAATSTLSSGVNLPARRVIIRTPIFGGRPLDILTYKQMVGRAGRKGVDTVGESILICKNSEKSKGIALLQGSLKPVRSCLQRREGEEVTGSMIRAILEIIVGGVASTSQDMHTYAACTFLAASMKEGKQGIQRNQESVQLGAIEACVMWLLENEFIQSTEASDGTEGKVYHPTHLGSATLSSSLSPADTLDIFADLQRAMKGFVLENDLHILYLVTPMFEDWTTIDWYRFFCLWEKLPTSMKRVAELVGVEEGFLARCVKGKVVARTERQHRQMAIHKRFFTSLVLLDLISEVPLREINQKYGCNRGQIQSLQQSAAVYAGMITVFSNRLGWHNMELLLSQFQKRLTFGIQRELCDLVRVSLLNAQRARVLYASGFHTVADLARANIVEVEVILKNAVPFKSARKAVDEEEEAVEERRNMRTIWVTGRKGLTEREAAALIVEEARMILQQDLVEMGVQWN

Take `COc1ccc(Cl)cc1-c1cc(C)ncc1C(=O)Nc1nc2ncc(-c3ccc(C4CC4)cn3)nc2s1` [Compound III, 4-(5-Chloro-2-methoxyphenyl)-N-[6-(5-cyclopropylpyridin-2-yl)thiazolo[4,5-b]pyrazin-2-yl]-6-methylpyridine-3-carboxamide]: the Combined effect entry in the experiment with DLD-1 BRCA2 (-/-) is on record as “Synergistic”. Further, the IC50 is less than 100 nM in experiment [1] and less than 200 nM in experiment [2].
With `COc1cnc(C)cc1-c1cc(C)ncc1C(=O)Nc1nc2ncc(-c3ccc(C#N)cc3)nc2s1` [Compound II, N-(6-(4-Cyanophenyl)thiazolo[4,5-b]pyrazin-2-yl)-5'-methoxy-2',6-dimethyl-[4,4'-bipyridinyl]-3-carboxamide], the Combined effect entry in the experiment on MDA-MB-436 and with DLD-1 BRCA2 (-/-) was “Synergistic” throughout. The IC50 is less than 100 nM in experiment [1], not below 10000 nM in the experiment with DLD-1 parent cells and less than 200 nM in experiment [2].
Consider `COc1ccc(Cl)cc1-c1cc(C)ncc1C(=O)Nc1nc2ncc(-c3ccc(C#N)cc3)nc2s1` [Compound I, 4-(5-Chloro-2-methoxyphenyl)-N-[6-(4-cyanophenyl)thiazolo[4,5-b]pyrazin-2-yl]-6-methylnicotinamide], for which the Combined effect result in the experiment with MDA-MB-436 and with DLD-1 BRCA2 (-/-) was “Synergistic” throughout. The IC50 in experiment [1] was less than 100 nM; in the experiment on DLD-1 parent cells, not below 10000 nM; in experiment [2], less than 200 nM.

One may read the IC50 as the midpoint of a concentration-inhibition curve.

For the origin of these results see patent EP4744665A1, “COMBINATION OF POLQ INHIBITOR COMPOUND AND ANTI-CANCER THERAPEUTIC AGENT OR RADIOTHERAPY” (Simcere Zaiming Pharmaceutical Co., Ltd., priority 2023, dated 2025).
